The source of these data is paper PMC11233931, “Remodeling tumor‐associated macrophage for anti‐cancer effects by rational design of irreversible inhibition of mitogen‐activated protein kinase‐activated protein kinase 2” (MedComm, 2024).

The structures appear in SMILES notation.

Common to all, as to assay: Eurofins kinase selectivity profile against 380 other human recombinant kinases (Table S2)
What all share (format): biochemical

The target in experiment [1] is T1, 380 human recombinant protein kinases (Homo sapiens, UniProt P19784).
T1 construct: purchased Eurofins (Celle Lévescault)
Conditions: CK2α2(h), read-out: Inhibition rate. The method, boiled down: (§1)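 Off-target profiling: one compound assayed by a commercial provider over 380 recombinant human protein kinases at various concentrations.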

The target of experiment [2] is T2, 380 human recombinant protein kinases (Homo sapiens, UniProt P42338).
T2 construct: purchased Eurofins (Celle Lévescault)
Conditions: PI3 Kinase (p110β/p85α)(h), read-out: Inhibition rate (%). In outline: as §1

Experiment [3] has as its target T3, 380 human recombinant protein kinases (Homo sapiens, UniProt P51813).
T3 construct: purchased Eurofins (Celle Lévescault)
T3 sequence (P51813 1-675): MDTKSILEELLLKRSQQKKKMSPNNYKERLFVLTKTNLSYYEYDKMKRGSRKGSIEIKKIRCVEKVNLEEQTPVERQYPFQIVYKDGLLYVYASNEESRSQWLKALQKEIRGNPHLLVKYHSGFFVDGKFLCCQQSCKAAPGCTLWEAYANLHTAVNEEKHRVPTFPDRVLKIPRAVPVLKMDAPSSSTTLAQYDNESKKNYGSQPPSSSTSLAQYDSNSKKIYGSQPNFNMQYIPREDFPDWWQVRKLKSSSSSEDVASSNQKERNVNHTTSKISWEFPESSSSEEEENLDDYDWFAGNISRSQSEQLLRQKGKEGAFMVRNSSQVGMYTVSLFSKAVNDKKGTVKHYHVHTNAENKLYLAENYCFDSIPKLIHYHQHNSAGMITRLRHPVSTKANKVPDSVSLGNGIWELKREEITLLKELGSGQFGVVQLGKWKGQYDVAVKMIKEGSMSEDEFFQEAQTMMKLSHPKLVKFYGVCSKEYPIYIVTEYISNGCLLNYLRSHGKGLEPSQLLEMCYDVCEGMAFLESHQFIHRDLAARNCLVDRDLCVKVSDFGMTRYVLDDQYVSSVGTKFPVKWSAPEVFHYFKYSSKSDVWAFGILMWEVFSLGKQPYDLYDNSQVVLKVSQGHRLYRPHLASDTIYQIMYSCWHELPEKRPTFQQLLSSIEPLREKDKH
Conditions: Bmx(h), read-out: Inhibition rate. The method, boiled down: as §1

For experiment [4], the target named is T4, 380 human recombinant protein kinases (Homo sapiens, UniProt Q16620).
T4 construct: purchased Eurofins (Celle Lévescault)
The note with it: TrkB(h), read-out: Inhibition rate (%). In outline: as §1

Experiment [5] has as its target T5, 380 human recombinant protein kinases (Homo sapiens, UniProt Q5TCX8).
T5 construct: purchased Eurofins (Celle Lévescault)
The note with it: MLK4(h), read-out: Inhibition rate. The method, boiled down:
as §1

For experiment [6], the target named is T6, 380 human recombinant protein kinases (Homo sapiens, UniProt Q8TF76).
T6 construct: purchased Eurofins (Celle Lévescault)
T6 sequence (Q8TF76 1-798): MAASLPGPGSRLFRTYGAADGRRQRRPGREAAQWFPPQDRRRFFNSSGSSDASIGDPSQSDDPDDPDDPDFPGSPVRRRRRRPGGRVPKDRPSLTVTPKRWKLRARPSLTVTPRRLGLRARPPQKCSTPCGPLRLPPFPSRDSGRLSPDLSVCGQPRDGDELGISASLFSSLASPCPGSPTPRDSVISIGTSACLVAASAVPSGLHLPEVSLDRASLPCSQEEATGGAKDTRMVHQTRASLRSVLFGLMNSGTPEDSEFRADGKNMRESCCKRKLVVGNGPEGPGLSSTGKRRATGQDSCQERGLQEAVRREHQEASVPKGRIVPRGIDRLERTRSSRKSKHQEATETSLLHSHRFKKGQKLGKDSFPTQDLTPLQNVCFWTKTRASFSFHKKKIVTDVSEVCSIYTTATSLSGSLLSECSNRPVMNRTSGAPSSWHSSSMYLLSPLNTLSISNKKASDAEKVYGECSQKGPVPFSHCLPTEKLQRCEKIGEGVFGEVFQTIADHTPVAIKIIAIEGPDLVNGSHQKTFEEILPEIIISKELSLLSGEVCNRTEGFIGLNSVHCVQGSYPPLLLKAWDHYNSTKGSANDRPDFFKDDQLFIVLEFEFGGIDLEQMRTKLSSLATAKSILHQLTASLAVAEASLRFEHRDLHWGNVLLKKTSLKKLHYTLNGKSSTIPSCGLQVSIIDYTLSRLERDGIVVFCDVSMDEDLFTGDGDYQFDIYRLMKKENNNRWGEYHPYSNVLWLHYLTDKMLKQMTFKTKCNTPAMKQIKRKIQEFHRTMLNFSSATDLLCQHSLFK
Conditions: Haspin(h), read-out: Inhibition rate. In outline: as §1

Experiment [7] concerns the target T7, 380 human recombinant protein kinases (Homo sapiens, UniProt Q8WTQ7).
T7 construct: purchased Eurofins (Celle Lévescault)
T7 sequence (Q8WTQ7 1-553): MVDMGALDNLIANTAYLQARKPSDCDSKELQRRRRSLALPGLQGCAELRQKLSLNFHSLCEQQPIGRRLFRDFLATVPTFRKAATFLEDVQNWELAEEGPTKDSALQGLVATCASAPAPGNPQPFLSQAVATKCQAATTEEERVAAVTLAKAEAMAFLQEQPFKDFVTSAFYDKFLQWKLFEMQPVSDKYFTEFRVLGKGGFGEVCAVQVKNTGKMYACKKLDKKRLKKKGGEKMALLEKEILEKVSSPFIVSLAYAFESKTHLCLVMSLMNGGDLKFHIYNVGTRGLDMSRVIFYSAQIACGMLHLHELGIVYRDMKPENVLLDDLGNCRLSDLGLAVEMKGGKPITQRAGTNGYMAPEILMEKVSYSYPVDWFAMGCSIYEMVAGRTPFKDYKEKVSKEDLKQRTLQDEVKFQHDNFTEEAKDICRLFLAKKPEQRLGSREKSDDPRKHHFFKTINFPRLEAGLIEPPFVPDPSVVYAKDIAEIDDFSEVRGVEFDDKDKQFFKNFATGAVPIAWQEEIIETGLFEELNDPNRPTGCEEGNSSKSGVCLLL
Conditions: GRK7(h), read-out: Inhibition rate. The method, boiled down:
as §1

T4 sequence (Q16620 32-822): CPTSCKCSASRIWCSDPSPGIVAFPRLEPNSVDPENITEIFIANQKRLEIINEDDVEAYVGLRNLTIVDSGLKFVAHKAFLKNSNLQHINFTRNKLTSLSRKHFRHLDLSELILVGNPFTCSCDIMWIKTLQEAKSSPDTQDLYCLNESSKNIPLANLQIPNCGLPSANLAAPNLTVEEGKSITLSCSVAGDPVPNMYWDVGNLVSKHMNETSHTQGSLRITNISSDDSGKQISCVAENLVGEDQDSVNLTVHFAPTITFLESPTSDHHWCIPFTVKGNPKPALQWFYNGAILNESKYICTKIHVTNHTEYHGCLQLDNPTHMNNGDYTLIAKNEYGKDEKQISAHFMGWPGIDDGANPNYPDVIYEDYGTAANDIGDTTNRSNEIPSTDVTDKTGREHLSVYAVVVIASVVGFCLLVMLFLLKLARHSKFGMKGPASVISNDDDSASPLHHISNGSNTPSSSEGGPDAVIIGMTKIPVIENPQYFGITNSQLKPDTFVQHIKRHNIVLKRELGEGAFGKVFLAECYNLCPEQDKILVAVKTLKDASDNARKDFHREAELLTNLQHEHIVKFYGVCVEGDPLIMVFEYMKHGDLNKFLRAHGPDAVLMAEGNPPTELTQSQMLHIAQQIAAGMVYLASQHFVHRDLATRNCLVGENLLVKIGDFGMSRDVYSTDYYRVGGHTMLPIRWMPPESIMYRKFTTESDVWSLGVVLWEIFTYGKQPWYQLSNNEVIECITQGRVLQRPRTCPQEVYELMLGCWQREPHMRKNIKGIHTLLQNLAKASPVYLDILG
T1 sequence (P19784 whole entry): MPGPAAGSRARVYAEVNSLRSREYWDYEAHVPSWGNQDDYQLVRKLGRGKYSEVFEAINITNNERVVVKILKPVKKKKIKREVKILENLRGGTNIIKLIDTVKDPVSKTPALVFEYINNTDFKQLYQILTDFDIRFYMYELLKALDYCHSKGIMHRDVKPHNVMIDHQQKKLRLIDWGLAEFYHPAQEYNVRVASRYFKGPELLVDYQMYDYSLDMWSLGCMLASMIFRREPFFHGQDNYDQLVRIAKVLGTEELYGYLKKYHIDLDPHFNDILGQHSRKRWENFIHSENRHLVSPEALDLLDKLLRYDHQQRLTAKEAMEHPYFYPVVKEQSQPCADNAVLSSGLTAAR
T2 sequence (P42338 whole entry): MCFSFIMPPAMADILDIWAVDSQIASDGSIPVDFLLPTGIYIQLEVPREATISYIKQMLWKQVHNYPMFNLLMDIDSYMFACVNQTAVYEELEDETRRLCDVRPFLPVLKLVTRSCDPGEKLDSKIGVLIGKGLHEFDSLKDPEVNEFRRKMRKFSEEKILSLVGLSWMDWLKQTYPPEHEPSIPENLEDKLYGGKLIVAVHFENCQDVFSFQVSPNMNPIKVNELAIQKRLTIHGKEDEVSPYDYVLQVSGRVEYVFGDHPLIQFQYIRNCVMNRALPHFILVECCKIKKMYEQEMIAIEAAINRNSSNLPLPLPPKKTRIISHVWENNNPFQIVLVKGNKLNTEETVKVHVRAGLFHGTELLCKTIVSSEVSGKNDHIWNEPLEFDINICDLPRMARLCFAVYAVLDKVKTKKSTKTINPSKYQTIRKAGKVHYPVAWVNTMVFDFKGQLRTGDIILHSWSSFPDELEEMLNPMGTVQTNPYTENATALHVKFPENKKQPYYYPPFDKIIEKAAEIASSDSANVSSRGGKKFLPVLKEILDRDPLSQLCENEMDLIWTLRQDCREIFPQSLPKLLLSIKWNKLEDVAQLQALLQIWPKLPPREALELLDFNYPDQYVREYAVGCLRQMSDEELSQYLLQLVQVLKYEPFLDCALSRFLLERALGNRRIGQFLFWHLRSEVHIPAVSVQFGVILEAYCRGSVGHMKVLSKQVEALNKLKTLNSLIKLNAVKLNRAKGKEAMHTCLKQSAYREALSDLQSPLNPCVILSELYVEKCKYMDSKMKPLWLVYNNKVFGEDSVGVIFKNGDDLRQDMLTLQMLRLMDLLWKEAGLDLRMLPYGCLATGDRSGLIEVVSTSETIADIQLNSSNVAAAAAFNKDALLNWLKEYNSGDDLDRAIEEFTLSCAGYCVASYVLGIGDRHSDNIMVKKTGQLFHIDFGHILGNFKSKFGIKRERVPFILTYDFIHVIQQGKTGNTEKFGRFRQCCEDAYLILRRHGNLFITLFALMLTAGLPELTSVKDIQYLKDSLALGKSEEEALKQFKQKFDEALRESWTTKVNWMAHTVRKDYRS
T5 sequence (Q5TCX8 whole entry): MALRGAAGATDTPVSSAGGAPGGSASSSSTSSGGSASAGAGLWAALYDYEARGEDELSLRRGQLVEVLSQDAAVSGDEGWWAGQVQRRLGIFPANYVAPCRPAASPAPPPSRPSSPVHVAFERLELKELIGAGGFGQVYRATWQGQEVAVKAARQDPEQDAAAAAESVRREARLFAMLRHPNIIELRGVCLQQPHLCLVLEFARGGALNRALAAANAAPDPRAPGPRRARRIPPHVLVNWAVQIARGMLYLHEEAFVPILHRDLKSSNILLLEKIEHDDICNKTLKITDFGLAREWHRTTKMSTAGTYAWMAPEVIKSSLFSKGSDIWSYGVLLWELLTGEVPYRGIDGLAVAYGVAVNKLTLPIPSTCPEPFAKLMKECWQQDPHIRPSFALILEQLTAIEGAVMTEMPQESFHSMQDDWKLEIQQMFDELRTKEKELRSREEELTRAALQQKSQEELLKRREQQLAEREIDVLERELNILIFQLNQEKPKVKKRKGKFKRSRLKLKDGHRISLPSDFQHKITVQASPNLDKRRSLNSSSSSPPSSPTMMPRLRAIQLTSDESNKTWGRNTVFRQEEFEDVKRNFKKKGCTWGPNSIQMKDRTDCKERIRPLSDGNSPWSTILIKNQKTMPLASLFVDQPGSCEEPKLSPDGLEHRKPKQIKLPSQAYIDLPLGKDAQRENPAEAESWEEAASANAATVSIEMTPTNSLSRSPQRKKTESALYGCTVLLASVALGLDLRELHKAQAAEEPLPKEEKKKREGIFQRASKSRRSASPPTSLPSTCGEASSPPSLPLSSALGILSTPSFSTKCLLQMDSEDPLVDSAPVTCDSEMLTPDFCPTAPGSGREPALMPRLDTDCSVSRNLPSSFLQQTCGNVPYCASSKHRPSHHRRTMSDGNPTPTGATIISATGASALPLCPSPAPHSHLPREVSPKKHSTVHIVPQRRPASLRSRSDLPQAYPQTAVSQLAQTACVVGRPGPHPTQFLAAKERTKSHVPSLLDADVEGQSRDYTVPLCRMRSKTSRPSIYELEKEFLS

In the case of `C=CC(=O)Nc1cc(-c2cc(-c3cc4c([nH]3)CCNC4=O)ccn2)ccc1OC(F)(F)F` [compound 11], the inhibition at 0.01 µM in experiment [1] (10 nM) was 10%; in experiment [2] (10 nM), -1%; in experiment [3] (10 nM), 1%; in experiment [4] (10 nM) it was -6%; in experiment [5] (10 nM), -2%; in experiment [6] (10 nM), 1%. Moreover, in experiment [7] (10 nM), the inhibition at 0.01 µM was -4%. Also, the inhibition at 0.1 µM in experiment [1] (100 nM) was 14%; in experiment [2] (100 nM), -1%; in experiment [3] (100 nM), -4%; in experiment [4] (100 nM) it was -9%; in experiment [5] (100 nM), -2%; in experiment [6] (100 nM), 11%. Moreover, the inhibition at 0.1 µM in experiment [7] (100 nM) was -6%. In addition, the inhibition at 1 µM in experiment [1] (1000 nM) was 26%; in experiment [2] (1000 nM), -1%; in experiment [3] (1000 nM), -5%; in experiment [4] (1000 nM), -20%; in experiment [5] (1000 nM), -3%; in experiment [6] (1000 nM), 46%. The inhibition at 1 µM in experiment [7] (1000 nM) was 2%.

One may read the inhibition as the drop in the measured response relative to a control, in per cent.
